In patent US9890185B2, “Urea derivatives useful as kinase inhibitors” (Respivert Limited, priority 2013, dated 2018):

Tests used:
[1] = target: p38 MAPKα isoform (MAPK14) (Homo sapiens (Human), UniProt Q16539); test: p38 MAPKα enzyme inhibition (FRET, Z-LYTE, Method 2); assay type: biochemical
Method in brief: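 Z-LYTE FRET: p38 MAPKα (80 ng/mL for Method 1, 200 ng/mL for Method 2, pre-dilution) preincubated 2 hr RT with compound (4–0.004 μg/mL solutions), activity read via MAPKAP-K2 phosphorylation after 1 hr RT and 1 hr protease development. Coumarin/fluorescein ratio gives phosphorylation; % inhibition versus uninhibited control, IC50 from concentration-response curve.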

c-Src = c-Src (Homo sapiens (Human), UniProt P12931); test: c-Src enzyme inhibition (FRET, Z-LYTE); assay type: biochemical
Chain of c-Src (P12931 whole entry, looked up): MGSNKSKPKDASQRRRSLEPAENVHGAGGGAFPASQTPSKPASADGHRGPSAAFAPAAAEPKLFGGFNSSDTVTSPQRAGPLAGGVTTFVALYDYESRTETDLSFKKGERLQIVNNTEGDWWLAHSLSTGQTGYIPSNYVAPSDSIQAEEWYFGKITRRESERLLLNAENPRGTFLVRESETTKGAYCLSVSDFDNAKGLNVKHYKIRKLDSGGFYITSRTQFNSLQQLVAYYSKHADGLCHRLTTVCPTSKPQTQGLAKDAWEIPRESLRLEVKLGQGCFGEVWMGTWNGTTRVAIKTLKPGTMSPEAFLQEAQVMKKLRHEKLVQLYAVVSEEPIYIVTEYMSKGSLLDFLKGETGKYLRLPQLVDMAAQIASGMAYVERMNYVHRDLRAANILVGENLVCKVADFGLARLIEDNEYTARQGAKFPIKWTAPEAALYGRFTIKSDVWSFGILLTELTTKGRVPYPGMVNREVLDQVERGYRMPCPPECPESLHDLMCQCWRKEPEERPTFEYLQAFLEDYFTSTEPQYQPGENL
Method in brief: (§1)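 Enzyme (c-Src 3000 ng/mL, Syk 2000 ng/mL, as added solutions) was preincubated with compound for 2 hr at RT, then FRET peptide and ATP (added solution 800 μM for c-Src, 60 μM for Syk) for 1 hr. Protease development 1 hr; coumarin/fluorescein emission ratio gave % inhibition, IC50 from concentration-response.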

HT29 cells = test: IL-1β-induced IL-8 release in HT29 cells (assay d); assay type: cell-based; details: Homo sapiens, HT-29; IL-1β-stimulated HT29 cells; read-out: IC50 Values for Inhibition of Cytokine Release, HT29 cells IL-8
Procedure: HT29 cells, a human colon adenocarcinoma cell line, are plated in a 96 well plate (24 hrs) and pre-treated with compounds at the desired concentration for 2 hours before addition of 5 ng/mL of IL-1β (Abcam) for 24 hours. Supernatants are harvested for IL-8 quantification by Sandwich ELISA (Duo-set, R&D System). The IC50 is determined from the dose response curve.

PBMCs [2] = test: Cell mitosis assay in PBMCs (assay g); assay type: cell-based; details: Homo sapiens, PBMC, test compound 5 μg/mL
Method in brief: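 Human PBMCs from healthy donors, stimulated with 2% PHA for 48 hr, then exposed to test compounds for 20 hr, with demecolcine (0.1 μg/mL) added 2 hr before harvest. Cells fixed/permeabilised, stained for phospho-histone 3 and propidium iodide, and read by flow cytometry gated on lymphocytes. % mitosis inhibition vs 0.5% DMSO vehicle.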

Syk = Syk (Homo sapiens (Human), UniProt P43405); test: Syk enzyme inhibition (FRET, Z-LYTE); assay type: biochemical
Method in brief: as §1

PBMCs [3] = test: LPS-induced IL-8 release in PBMC cells (assay b); assay type: cell-based, human; details: Homo sapiens, PBMC; LPS-stimulated PBMCs; read-out: IC50 Values for Inhibition of Cytokine Release, PBMCs IL-8
Method in brief: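 Human PBMCs from healthy donors, isolated by density gradient, were pretreated with compound for 2 h and then stimulated with 1 ng/mL LPS (E. coli 0111:B4) for 24 h at 37° C, 5% CO2. Supernatant IL-8 and TNFα were measured by sandwich ELISA, and IC50 was taken from the dose-response curve.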

GSK 3α = GSK 3α (Homo sapiens (Human), UniProt P49840); test: GSK 3α enzyme inhibition (FRET, Z-LYTE, Method 2); assay type: biochemical; details: read-out: IC50 Values for Enzyme Inhibition, GSK3α
Chain of GSK 3α (P49840 whole entry): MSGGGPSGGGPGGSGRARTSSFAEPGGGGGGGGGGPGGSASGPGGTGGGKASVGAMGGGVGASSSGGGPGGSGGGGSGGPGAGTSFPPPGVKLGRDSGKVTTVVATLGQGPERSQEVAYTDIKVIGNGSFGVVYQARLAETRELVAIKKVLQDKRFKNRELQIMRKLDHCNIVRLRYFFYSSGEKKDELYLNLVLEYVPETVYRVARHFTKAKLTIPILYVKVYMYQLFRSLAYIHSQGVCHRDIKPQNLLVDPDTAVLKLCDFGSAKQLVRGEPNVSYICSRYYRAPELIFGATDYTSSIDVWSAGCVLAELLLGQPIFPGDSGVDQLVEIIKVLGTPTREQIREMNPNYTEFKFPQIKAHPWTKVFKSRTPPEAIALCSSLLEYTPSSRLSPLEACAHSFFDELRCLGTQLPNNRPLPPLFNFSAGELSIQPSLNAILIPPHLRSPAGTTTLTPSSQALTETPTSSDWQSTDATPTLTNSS
Method in brief: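 Human GSK3α (500 ng/mL) preincubated with compound (4, 0.4, 0.04 or 0.004 μg/mL) at RT for 2 h (Method 1) or 105 min (Method 2). Then FRET peptide (8 μM) and ATP (40 μM) added for 1 h, followed by protease development for 1 h. IC50 from the coumarin/fluorescein emission ratio relative to uninhibited control.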

d-U937 cells = test: Accumulation of β catenin in d-U937 cells (assay m); assay type: cell-based, human; details: percentage relative to Reference Compound at 1 μg/mL
Method in brief: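 PMA-differentiated (100 ng/mL, 48–72 hr) human U937 macrophage-type cells treated with test compound or vehicle for 18 hr. β-catenin measured by in-cell ELISA (anti-β-catenin, HRP secondary, TMB, OD450–655). Signal corrected for cell number by dividing by crystal violet OD595.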

PBMCs [4] = test: IL-2 release in CD3/CD28 stimulated PBMC cells (assay c); assay type: cell-based; details: Homo sapiens, read-out: IC50 Values for Inhibition of Cytokine Release, PBMCs IL-2
Method in brief: (§2)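 Compound added to human PBMCs on anti-CD3/anti-CD28-coated wells (0.3 and 3 μg/mL respectively); 3-day culture. Sandwich ELISA of supernatant IL-2 or IFN gamma gives the read-out, with IC50 derived from the dose-response curve.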

PBMCs [5] = test: IFN gamma release in CD3/CD28 stimulated PBMC cells (assay c); assay type: cell-based; details: Homo sapiens, read-out: IC50 Values for Inhibition of Cytokine Release, PBMCs IFNγ
Method in brief: as §2

Chain of p38 MAPKα isoform (MAPK14) (Q16539 whole entry, canonical isoform): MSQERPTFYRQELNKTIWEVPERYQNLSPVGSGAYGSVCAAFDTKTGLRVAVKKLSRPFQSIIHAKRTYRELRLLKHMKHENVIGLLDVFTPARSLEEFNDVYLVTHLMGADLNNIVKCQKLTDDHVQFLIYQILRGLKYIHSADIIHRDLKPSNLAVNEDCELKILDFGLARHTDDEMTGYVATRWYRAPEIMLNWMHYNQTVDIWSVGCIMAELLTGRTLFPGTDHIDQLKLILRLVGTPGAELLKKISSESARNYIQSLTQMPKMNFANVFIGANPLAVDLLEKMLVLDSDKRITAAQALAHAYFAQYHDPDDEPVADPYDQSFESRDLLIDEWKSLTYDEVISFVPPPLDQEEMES

IC50 [1] | IC50 (c-Src) | IC50 (HT29 cells) | IC50 (Syk) | IC50 (GSK 3α) | Compound | inhibition at 5 µg/mL (PBMCs [2]) | IC50 (PBMCs [3]) | % β-catenin induction (d-U937 cells; test compound 1 μg/mL) | % β-catenin induction (d-U937 cells; test compound 5 μg/mL) | % β-catenin induction (d-U937 cells; test compound 10 μg/mL) | IC50 (PBMCs [4]) | IC50 (PBMCs [5])
27 nM | 12 nM | 7.3 nM | 31 nM | 2220 nM | COc1cc(CO)cc(Nc2cc(Oc3ccc(NC(=O)Nc4cc(C(C)(C)C)cc(P(C)(C)=O)c4OC)c4ccccc34)ccn2)c1 [38(c), 1-(5-(tert-Butyl)-3-(dimethylphosphoryl)-2-methoxyphenyl)-3-(4-((2-((3-(hydroxymethyl)-5-methoxyphenyl)amino)pyridin-4-yl)oxy)naphthalen-1-yl)urea] | 90.2% | 1.7 nM | 3.5% | 16.0% | 28.5% |  | 
5 nM | 522 nM | 15.9 nM | > 1600 nM | 1980 nM | COc1c(NC(=O)Nc2ccc(Oc3ccnc(NCc4ccccn4)c3)c3ccccc23)cc(C(C)(C)C)cc1P(C)(C)=O [38(e), 1-(5-(tert-Butyl)-3-(dimethylphosphoryl)-2-methoxyphenyl)-3-(4-((2-((pyridin-2-ylmethyl)amino)pyridin-4-yl)oxy)naphthalen-1-yl)urea] | 41.6% | 2.9 nM | 2.0% | 30.5% | 32.5% |  | 
151 nM | 94 nM | 25.9 nM | > 1460 nM | 2210 nM | COc1c(CC(N)=O)cc(C(C)(C)C)cc1NC(=O)Nc1ccc(Oc2ccnc(Nc3cccc(OS(C)(=O)=O)c3)c2)c2ccccc12 [38(r), 3-((4-((4-(3-(3-(2-Amino-2-oxoethyl)-5-(tert-butyl)-2-methoxyphenyl)ureido)naphthalen-1-yl)oxy)pyridin-2-yl)amino)phenyl methanesulfonate] | 56.1% | 1.9 nM |  |  |  | 153 nM | 9.8 nM
15 nM | 13 nM | 2.6 nM |  | 1070 nM | COc1cc(Nc2cc(Oc3ccc(NC(=O)Nc4cc(C(C)(C)C)cc(C[S+](C)[O-])c4OC)c4ccccc34)ccn2)cc(C(=O)NCCN2CCOCC2)c1 (centres unmarked) [38(u), 3-((4-((4-(3-(5-(tert-Butyl)-2-methoxy-3-((methylsulfinyl)methyl)phenyl)ureido)naphthalen-1-yl)oxy)pyridin-2-yl)amino)-5-methoxy-N-(2-morpholinoethyl)benzamide] | 72.2% | 1 nM |  |  |  | 171 nM | 2.9 nM
8 nM | > 1640 nM | 2 nM | > 1640 nM | 3410 nM | COc1c(NC(=O)Nc2ccc(Oc3ccnc(NCc4ccccn4)c3)c3ccccc23)cc(C(C)(C)C)cc1[S+](C)[O-] (centres unmarked) [Example 42, 1-(5-(tert-Butyl)-2-methoxy-3-(methylsulfinyl)phenyl)-3-(4-((2-((pyridin-2-ylmethyl)amino)pyridin-4-yl)oxy)naphthalen-1-yl)urea] | 29.9% | 4.3 nM | −5.0% | 12.0% | 20.5% |  | 
21 nM | 12 nM | 8 nM | > 706 nM | 1600 nM | COc1cc(Nc2cc(Oc3ccc(NC(=O)Nc4cc(C(C)(C)C)cc(CC(N)=O)c4OC)c4ccccc34)ccn2)cc(C(=O)NCCN2CCOCC2)c1 [Example 45, 3-((4-((4-(3-(3-(2-Amino-2-oxoethyl)-5-(tert-butyl)-2-methoxyphenyl)ureido)naphthalen-1-yl)oxy)pyridin-2-yl)amino)-5-methoxy-N-(2-morpholinoethyl)benzamide] | 49.6% | 1.2 nM |  |  |  | 36.4 nM | 5.2 nM
25 nM | 25 nM | 2.8 nM | 996 nM | 2060 nM | COc1cc(Nc2cc(Oc3ccc(NC(=O)Nc4cc(C(C)(C)C)cc([S+](C)[O-])c4OC)c4ccccc34)ccn2)cc(C(=O)NCCN2CCOCC2)c1 (centres unmarked) [Example 46, 3-((4-((4-(3-(5-(tert-Butyl)-2-methoxy-3-(methylsulfinyl)phenyl)ureido)naphthalen-1-yl)oxy)pyridin-2-yl)amino)-5-methoxy-N-(2-morpholinoethyl)benzamide] | 45.8% | 0.8 nM |  |  |  | 47.3 nM | 2.8 nM
36 nM | 34 nM | 26.1 nM | > 1510 nM | 1460 nM | COc1cc(Nc2cc(Oc3ccc(NC(=O)Nc4cc(C(C)(C)C)cc(CC(N)=O)c4OC)c4ccccc34)ccn2)cc(C(N)=O)c1 [Example 47, 3-((4-((4-(3-(3-(2-Amino-2-oxoethyl)-5-(tert-butyl)-2-methoxyphenyl)ureido)naphthalen-1-yl)oxy)pyridin-2-yl)amino)-5-methoxybenzamide] | 30.1% | 2.2 nM |  |  |  | 57.1 nM | 3 nM
